Assay results: PMC11487604, “Selective, Intrinsically Fluorescent Trk Modulating Probes” (ACS Chemical Neuroscience, 2024)
Read-outs that look alike come from different tables or passages of the source. *1 amine or outer side, *2 acyl side, *3 side chain or, on linkers, in order; H or OH if unused. Where a SMILES comes first, the peptide text is derived from it. Bridges are numbered along the chain shown (N, C = ends). X1 = COc1ccc(C2=C3C=C(S(=O)(=O)O)C([*:2])=[N+]3[B-](F)(F)n3c2cc(S(=O)(=O)O)c3[*:1])cc1; X2 = COc1ccc(C2=C3C=C(S(=O)(=O)O)C([*:1])=[N+]3[B-](F)(F)n3c2cc(S(=O)(=O)O)c3[*:2])cc1

Assays:
[1] = target: TrkB-expressing cells (HEK+B) (UniProt Q16620); test: Cell survival assay in serum-free media, TrkB-expressing cells (HEK+B); type: cell-based; settings: normalized to DMSO (0%) and 1.0 nM BDNF (100%)
Procedure: Loop mimics 5 were screened in cell survival assays to evaluate their efficacy in stimulating Trk receptors (Figure 2). Mimics were assayed for the ability to rescue cells from cell death when incubated in serum-free media (SFM) in the absence of NTs (a test for “agonism”) or in the presence of a suboptimal NT concentration (a test for NT “modulation”). Simultaneously, these assays may confirm test mimics are not cytotoxic at lower doses (though cytotoxicity assays were also performed up to higher doses, Figure S1). […] All the test compounds were screened at 50 μM concentrations initially, and then, dose response curves were measured for the hits (Table 1 and Figure 3).
We were forced to use transfectants in different cell lines (HeLa, HEK-293, NIH-3T3 expressing TrkA, B, and C, respectively) due to difficulties in obtaining transfected cells derived from a single wild type; however, none of the cells used express TrkA-C prior to transfection. Throughout this paper, HeLa cells are denoted as “HeLa”, and their TrkA transfectants are “HeLa+A”. Similarly, HEK-293 cells are “HEK”; their TrkB transfectants are HEK+B. NIH-3T3 cells are “NIH”, and their TrkC transfectants are “NIH+C”.
Cells were seeded at a density of 2 × 10^3 cells/well in complete media in 96-well plates and incubated for 24 h to allow cells to adhere. Cells were washed with DPBS, and then, media were swapped for serum-free media of the same type as the complete media. Cells were then treated with 50 μM compound either alone or in conjunction with suboptimal neurotrophin corresponding to the Trk receptor expressed for 48 h. Cells were washed with DPBS buffer twice and detached from the plate with 50 μL of trypsin for 3 min at 37 °C. Trypsinization was quenched with 100 μL of complete media. Cells were suspended and live cells counted using flow cytometry (CytoFLEX LX). Cell survival was normalized from cell count (CC) readings relative to optimal neurotrophin (NT = 100%) and DMSO (0%) utilizing GraphPad Prism 10.2, followed by statistical analysis via one-way ANOVA and Dunnett’s t test compared to the DMSO control. Dose response versions of this assay were conducted following the same procedure, but the data was analyzed in GraphPad Prism 10.2 using the nonlinear fit: {agonist} vs response – variable slope (four parameters) function.

TrkB (HEK293-TrkB cells) = target: T1, TrkB (HEK293-TrkB cells) (Homo sapiens, UniProt Q16620); test: Cell-surface fluorescence binding to live HEK293-TrkB cells; settings: HEK293-TrkB minus HEK293 wild-type fluorescence, 2.5 h
T1 construct: expressed in transfected cells; host or cells: HEK293
Description: Binding of the selective, intrinsically fluorescent mimics to cells can be observed and quantitated via fluorescence. Raw data includes fluorescence associated with material not removed in the washing step (sticky, nonselective binding), and if there were binding to any receptors other than Trk, then fluorescence would be observed for this too. In a second experiment, fluorescence associated with the wild-type cells without Trk expression was similarly recorded to provide a baseline correction representative of that nonselective binding, plus affinity to non-Trk receptors if that occurred. Consequently, fluorescence observed in the noncompetitive experiment minus that in the one using Trk-negative cell lines represents a minimum associated with binding to the expressed Trk receptor. […]
Trk-positive transfected cell lines (HeLa-TrkA, HEK293-TrkB, and NIH3T3-TrkC) and Trk-negative cell lines (HeLa, HEK293, and NIH3T3) were seeded at a density of 2 × 10^3 cells/well in 96-well plates and incubated for 24 h to allow them to adhere. […] Cell associated fluorescence was then determined by measuring emission of the resulting solution on a plate reader (BioTek Synergy H4 Hybrid Reader), λex (540/25 nm) and λem (620/40 nm). […]

[2] = test system: pAKT in PC12 (TrkA+) cells; test: ELFI, pAKT signaling in PC12 cells, competition with NT; type: cell-based, rat; settings: competed with 10 ng/mL NT, 1 h
Procedure: (§1) Throughout, the positive control was concentration-dependent treatment with the parent NT in half-log dilutions from 100 ng/mL to 0.1 ng/mL, and the negative control was to treat the cells with only DMSO. We first determined Z′ factors[83] based on these boundary controls. Once the assays had been validated (Z′ > 0.5), we determined optimal times to fix cells after treatment (taking into account potential differences in the kinetics of Trk activation between small molecules and neurotrophins), mimicked dose ranges, and then performed dose response studies.
(§2) Assays were conducted as previously reported.[36] Trk-positive cells (PC12, HEK293-TrkB, and NIH3T3-TrkC) were seeded at a density of 2 × 10^4 cells per well in poly-D-lysine (PDL)-coated 96-well white flat-bottomed plates and allowed to adhere for 24 h. Cells were washed once with SFM and then incubated for 1–2 h in SFM. A serial dilution of compound and/or NT was added, and the cells were incubated for 15 min (agonism experiments) or 1 h (antagonism). […] Cells were washed 6× with WB, and then, levels of phosphorylation were quantified using SuperSignal ELISA Pico Chemiluminescent Substrate (Thermo Scientific). […] IC50 is calculated for 5c(ii) using the {inhibitor} vs response – variable slope (four parameters) function in GraphPad Prism 10.2.

[3] = test system: pMAPK in PC12 (TrkA+) cells; test: ELFI, pMAPK signaling in PC12 cells, competition with NT; type: cell-based, rat; settings: competed with 10 ng/mL NT, 1 h
Procedure: as §1, §2

pAKT in NIH+C cells = test: ELFI, pAKT signaling in NIH+C cells, competition with NT; type: cell-based; settings: competed with 10 ng/mL NT, 1 h
Procedure: as §1, §2

pMAPK in NIH+C cells = test: ELFI, pMAPK signaling in NIH+C cells, competition with NT; type: cell-based; settings: competed with 10 ng/mL NT, 1 h
Procedure: as §1, §2

[4] = target: TrkA-expressing cells (HeLa+A) (UniProt P04629); test: Cell survival assay in serum-free media, TrkA-expressing cells (HeLa+A); type: cell-based; settings: Figure 8 summary
Procedure: Cells were seeded at a density of 2 × 10^3 cells/well in complete media in 96-well plates and incubated for 24 h to allow cells to adhere. Cells were washed with DPBS, and then, media were swapped for serum-free media of the same type as the complete media. […] Cells were suspended and live cells counted using flow cytometry (CytoFLEX LX).

[5] = test system: primary adult cortical neurons; test: Primary adult cortical neuron assay (neurite outgrowth and survival); type: cell-based, mouse; settings: 5 μM, neurons from 6-week-old male mice
Description: We next decided to test the effects of 5c(ii) on primary mouse adult cortical neurons. These neurons naturally express TrkA[84] and therefore provide a more clinically relevant substrate to test compound leads in than analogous Trk-expressing transfectants. In addition, using neurons extracted from adult mice provide increased relevance to neurodegenerative and other nervous-system related diseases and injury, since most of these primarily occur in adult populations.[85],[86] To determine any potential for preclinical applications, 5c(ii) (5 μM) was incubated with primary cortical neurons from 6-week-old male mice at the time of plating, and neuronal survival and neurite outgrowth were quantified.
Figure 7 5c(ii) promotes neuroprotection. Primary adult cortical neurons were extracted from 6-week-old male mice and plated on 384-well PDL-coated plastic bottom plates at 10,000 cells/well. 5c(ii) at 5 μM concentration was added at the time of plating. 48 h after plating, the cells were fixed to conduct immunocytochemistry. Graph represents the mean ± SEM of (a) total neurite outgrowth per cell and (b) number of valid neurons per well. Representative images of cortical neurons treated with (c) vehicle and (d) 5 μM 5c(ii). Student’s t test. N = 3–5. *p < 0.05.
Cortical neuron assay was conducted as previously described.[85] Briefly, wild-type 6-week-old C57Bl/6 male mice were euthanized using CO2, and the brains were removed. The cortex was isolated and transferred to a MACS C-tube and then dissociated using the Miltenyi gentleMACS octo-dissociator on a preset protocol designed for adult rodent brains. […] Images were quantified using the Neurite Outgrowth Analysis Module in MetaXpress 6 software (Molecular Devices). For quantification, the number of valid neurons is determined by quantifying the number of TUBB3^+/DAPI^+ cells in a well with ≥10 μm of total neurite outgrowth. Total neurite outgrowth is determined by dividing the length of all neurites in a well by the number of valid neurons in that respective well. […]

[6] = design: method as in PMID 34451801; settings: lack of selectivity; cited from earlier work

Sequence of TrkB-expressing cells (HEK+B) (Q16620 32-822): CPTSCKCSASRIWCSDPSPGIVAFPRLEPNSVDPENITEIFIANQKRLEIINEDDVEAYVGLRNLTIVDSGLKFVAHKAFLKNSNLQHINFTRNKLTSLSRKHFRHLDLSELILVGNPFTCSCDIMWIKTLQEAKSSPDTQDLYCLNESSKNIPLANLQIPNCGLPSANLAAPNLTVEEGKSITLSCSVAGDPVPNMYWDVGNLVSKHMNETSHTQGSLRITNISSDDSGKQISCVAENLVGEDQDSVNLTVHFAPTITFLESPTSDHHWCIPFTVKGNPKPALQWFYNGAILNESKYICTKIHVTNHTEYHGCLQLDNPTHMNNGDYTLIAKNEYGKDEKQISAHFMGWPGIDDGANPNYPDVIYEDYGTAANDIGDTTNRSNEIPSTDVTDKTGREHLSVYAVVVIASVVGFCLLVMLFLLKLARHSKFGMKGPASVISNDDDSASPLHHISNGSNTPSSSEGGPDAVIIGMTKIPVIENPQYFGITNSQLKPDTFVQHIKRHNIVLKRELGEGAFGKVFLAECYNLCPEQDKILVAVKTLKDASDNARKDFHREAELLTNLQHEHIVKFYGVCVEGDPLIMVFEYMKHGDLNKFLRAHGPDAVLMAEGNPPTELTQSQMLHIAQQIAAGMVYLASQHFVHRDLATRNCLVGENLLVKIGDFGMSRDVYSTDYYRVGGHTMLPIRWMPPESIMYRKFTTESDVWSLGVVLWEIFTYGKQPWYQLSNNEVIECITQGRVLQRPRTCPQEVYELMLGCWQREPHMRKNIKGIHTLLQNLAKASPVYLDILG
Sequence of TrkA-expressing cells (HeLa+A) (P04629 33-796): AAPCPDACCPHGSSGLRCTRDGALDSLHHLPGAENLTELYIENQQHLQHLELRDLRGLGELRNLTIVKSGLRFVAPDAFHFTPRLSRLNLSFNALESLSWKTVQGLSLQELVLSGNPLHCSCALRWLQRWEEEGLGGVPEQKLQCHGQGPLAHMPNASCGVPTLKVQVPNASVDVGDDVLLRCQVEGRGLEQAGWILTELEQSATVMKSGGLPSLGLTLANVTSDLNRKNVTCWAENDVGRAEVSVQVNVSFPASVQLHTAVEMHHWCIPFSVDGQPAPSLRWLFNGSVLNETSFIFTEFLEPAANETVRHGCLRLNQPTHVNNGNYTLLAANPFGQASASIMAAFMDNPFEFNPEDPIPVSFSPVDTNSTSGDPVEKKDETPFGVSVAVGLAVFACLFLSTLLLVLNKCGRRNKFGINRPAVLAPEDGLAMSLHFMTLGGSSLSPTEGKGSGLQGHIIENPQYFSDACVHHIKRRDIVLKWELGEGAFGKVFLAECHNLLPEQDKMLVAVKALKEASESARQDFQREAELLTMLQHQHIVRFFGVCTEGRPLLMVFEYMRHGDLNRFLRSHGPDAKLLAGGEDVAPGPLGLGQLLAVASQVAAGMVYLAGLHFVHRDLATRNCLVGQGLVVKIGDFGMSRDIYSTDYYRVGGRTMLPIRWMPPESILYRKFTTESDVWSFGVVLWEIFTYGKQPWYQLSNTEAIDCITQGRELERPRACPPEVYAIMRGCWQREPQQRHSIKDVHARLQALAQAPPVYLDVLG

In the case of `COc1ccc(C2=C3C=C(S(=O)(=O)O)C4=[N+]3[B-](F)(F)n3c2cc(S(=O)(=O)O)c3SC[C@@H](C(N)=O)NC(=O)CNC(=O)[C@H](CO)NC(=O)[C@H](CCSC)NC(=O)[C@H](CC(=O)O)NC(=O)[C@@H](NC(C)=O)CS4)cc1` [5b(i)] (Ac-CDMSGC-NH2; linker 1-6 via X2), the EC50 ([1]; cell survival with 0.6 nM BDNF, read-out: EC50 (μM) with suboptimal neurotrophin) is reported as 1.8 µM, the EC50 ([1]; dose-dependent cell survival without NT, read-out: EC50) is reported as 0.4 µM and the Kd (TrkB (HEK293-TrkB cells)) is reported as 73 ± 13 nM.

For `COc1ccc(C2=C3C=C(S(=O)(=O)O)C4=[N+]3[B-](F)(F)n3c2cc(S(=O)(=O)O)c3SC[C@H](NC(C)=O)C(=O)N[C@@H]([C@@H](C)O)C(=O)N[C@@H](CCC(N)=O)C(=O)N[C@@H](CC(N)=O)C(=O)N[C@@H](CO)C(=O)N[C@H](C(N)=O)CS4)cc1` [5c(ii)] (Ac-CTQNSC-NH2; linker 1-6 via X1; N-terminus and C-terminus assumed), the IC50 [2] was 7 µM, the IC50 [3] was 7 µM and the IC50 (pAKT in NIH+C cells) was 7 µM. For the same compound, the IC50 (pMAPK in NIH+C cells) was 35 µM, the “result (Trk activity assigned)” value [4] was “TrkA modulator” and the “change in neurite outgrowth” value ([5]; 48 h) was “no significant change”. The “increase in the number of valid neurons” value ([5]; after 48 h, vs vehicle) was “over 50%”.

In the case of `O=c1cc(-c2ccccc2)oc2c(O)c(O)ccc12` [7,8-DHF, 7,8-Dihydroxyflavone], the “number of targets bound” value [6] is given as 133.
